Measurements taken from ChEMBL document CHEMBL6071140, “Ocotillol Derivatives Mitigate Retinal Ischemia-Reperfusion Injury by Regulating the Keap1/Nrf2/ARE Signaling Pathway” (J Med Chem, 2024).
The source made the active and inactive calls. No cut-off for these calls is given here.

How the values were obtained:
[1] = Cytotoxicity against rat R28 cells assessed as decrease in cellular ATP content incubated for 24 hrs by CellTiter-Lumi Plus cell viability assay; type: toxicity, cell-based; conditions: r28, 24 h
R28 [2] = assay: Antioxidant activity in rat R28 cells assessed as protection against OGD induced cytotoxicity by measuring cellular ATP level preincubated under OGD condition for 8 hrs followed by reoxygenation for 4 hrs by CellTiter-Lumi Plus cell viability assay; type: functional, cell-based; conditions: dose 0.1-40 µM, time 12.0 hrs
[3] = molecular target: Kelch-like ECH-associated protein 1 (Homo sapiens) (UniProt Q14145); assay: Binding affinity to Keap1 (unknown origin) incubated for 15 mins by MST assay; conditions: filed as activator
BMDM [4] = assay: (§1) Antiinflammatory activity against LPS-stimulated mouse BMDM assessed as induction of polarization toward M2 phenotype at 1.25 uM preincubated for 2 hrs followed by LPS addition for 22 hrs by DAPI staining based confocal laser scanning microscopy; type: functional; conditions: time 24.0 hrs
Macrophage = assay: Antiinflammatory activity against LPS-stimulated mouse macrophages assessed as reduction in NO production at 0.1 to 40 uM preincubated for 2 hrs followed by LPS addition for 22 hrs by Griess reagent based assay; type: functional, cell-based; conditions: dose 0.1-40 µM, time 24.0 hrs
R28 [5] = assay: (§2) Upregulation of NQO1 protein expression in OGD stimulated rat R28 cells by Western blotting analysis; type: functional
R28 [6] = assay: (§3) Upregulation of Nrf2 protein expression in OGD stimulated rat R28 cells by Western blotting analysis; type: functional
R28 [7] = assay: Antioxidant activity in rat R28 cells assessed as protection against OGD induced cytotoxicity by measuring cellular ATP level at 0.1 to 40 uM preincubated under OGD condition for 8 hrs followed by reoxygenation for 4 hrs by CellTiter-Lumi Plus cell viability assay; type: functional, cell-based; conditions: dose 0.1-40 µM, time 12.0 hrs
[8] = Inhibition of OGD stimulated ROS accumulation in rat R28 cells assessed as fold decrease in ROS level at 1.25 uM preincubated for 24 hrs followed by OGD stimulation by DCFH-DA staining based confocal laser scanning microscopy; type: functional
BMDM [9] = assay: Antiinflammatory activity against LPS-stimulated mouse BMDM assessed as reduction in IL6 expression at 1.25 uM preincubated for 2 hrs followed by LPS addition for 22 hrs by ELISA; type: functional, cell-based; conditions: time 24.0 hrs
BMDM [10] = assay: Antiinflammatory activity against LPS-stimulated mouse BMDM assessed as reduction in NO production at 1.25 uM preincubated for 2 hrs followed by LPS addition for 22 hrs by Griess reagent based assay; type: functional, cell-based; conditions: time 24.0 hrs
BMDM [11] = assay: (§4) Antiinflammatory activity against LPS-stimulated mouse BMDM assessed as fold decrease in TNFalpha expression at 1.25 uM preincubated for 2 hrs followed by LPS addition for 22 hrs by ELISA; type: functional; conditions: time 24.0 hrs
R28 [12] = assay: (§5) Upregulation of HO-1 protein expression in OGD stimulated rat R28 cells by Western blotting analysis; type: functional
[13] = as §1; type: functional; conditions: time 24 hrs
[14] = as §2; type: functional
[15] = as §3; type: functional
[16] = as §4; type: functional; conditions: time 24 hrs
[17] = as §5; type: functional
R28 [18] = assay: Induction of Nrf2 translocation from cytosol to nucleus in OGD stimulated rat R28 cells; type: functional, cell-based

Sequence of Kelch-like ECH-associated protein 1 (Homo sapiens) (Q14145 whole entry): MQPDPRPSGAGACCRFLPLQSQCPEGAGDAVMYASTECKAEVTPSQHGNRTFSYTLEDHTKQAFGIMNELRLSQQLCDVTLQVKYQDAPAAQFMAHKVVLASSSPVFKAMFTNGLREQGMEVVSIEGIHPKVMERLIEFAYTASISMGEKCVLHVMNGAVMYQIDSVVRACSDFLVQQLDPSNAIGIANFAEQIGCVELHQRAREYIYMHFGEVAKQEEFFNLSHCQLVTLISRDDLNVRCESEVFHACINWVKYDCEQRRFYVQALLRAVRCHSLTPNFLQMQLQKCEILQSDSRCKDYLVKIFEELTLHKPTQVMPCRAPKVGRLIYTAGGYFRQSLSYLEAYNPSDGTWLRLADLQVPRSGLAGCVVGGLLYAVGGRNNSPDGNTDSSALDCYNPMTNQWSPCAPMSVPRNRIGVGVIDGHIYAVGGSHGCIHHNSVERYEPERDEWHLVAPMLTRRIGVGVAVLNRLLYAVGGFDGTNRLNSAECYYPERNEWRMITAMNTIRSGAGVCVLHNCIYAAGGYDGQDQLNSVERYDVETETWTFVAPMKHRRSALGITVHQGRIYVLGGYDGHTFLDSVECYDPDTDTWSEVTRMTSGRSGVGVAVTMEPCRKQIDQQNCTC

Activity [3]	Structure (SMILES)	Activity [1]	Activity (R28 [2])	Activity (Macrophage)	Activity (R28 [7])	fold change (FC) [8]	Activity (BMDM [9])	Activity (BMDM [10])	further results
	CC(C)(O)[C@H]1CC[C@@](C)([C@H]2CC[C@]3(C)[C@@H]2[C@H](O)C[C@@H]2[C@@]4(C)CC[C@H](O)C(C)(C)[C@@H]4CC[C@]23C)O1	Non-Toxic	Dose-Dependent Effect						
Dose-Dependent Effect	CN(CC(=O)O)CC(=O)Nc1nc2c(s1)C[C@]1(C)[C@H]3C[C@@H](O)[C@@H]4[C@@H]([C@]5(C)CC[C@H](C(C)(C)O)O5)CC[C@@]4(C)[C@]3(C)CC[C@H]1C2(C)C	Non-Toxic	Dose-Dependent Effect	Active	Active	1.31	Active	Active	Activity (BMDM [4]): Active; Activity (R28 [5]): inactive; Activity (R28 [6]): inactive; Activity (BMDM [11]): inactive; Activity (R28 [12]): inactive
	CC(C)(O)[C@H]1CC[C@@](C)([C@H]2CC[C@]3(C)[C@@H]2[C@H](O)C[C@@H]2[C@@]4(C)Cc5sc(NC(=O)CC(=O)O)nc5C(C)(C)[C@@H]4CC[C@]23C)O1	Non-Toxic							
	CC(C)(O)[C@H]1CC[C@@](C)([C@H]2CC[C@]3(C)[C@@H]2[C@H](O)C[C@@H]2[C@@]4(C)Cc5c(C(=O)NCCCCCCN)noc5C(C)(C)[C@@H]4CC[C@]23C)O1	Non-Toxic							
	CC(C)(O)[C@@H]1CC[C@@](C)([C@H]2CC[C@]3(C)[C@@H]2[C@H](O)C[C@@H]2[C@@]4(C)Cc5sc(NC(=O)CCCC(=O)O)nc5C(C)(C)[C@@H]4CC[C@]23C)O1	Non-Toxic							
Dose-Dependent Effect	CN(CC(=O)O)CC(=O)Nc1nc2c(s1)C[C@]1(C)[C@H]3C[C@@H](O)[C@@H]4[C@@H]([C@]5(C)CC[C@@H](C(C)(C)O)O5)CC[C@@]4(C)[C@]3(C)CC[C@H]1C2(C)C	Non-Toxic	Dose-Dependent Effect	Active	Active	1.16	Active	Active	Activity [13]: 100%; Activity [14]: 85.54%; Activity [15]: 96.59%; fold change (FC) [16]: 48.3; Activity [17]: 77.93%; Activity (R28 [18]): Active
